# Reference: article PMC12017303 (Science Advances, 2025)
# pEC50, pIC50: −log10 of the molar value.
# What was measured:
# [1] = tested on: SARS-CoV-2 mNeon XBB.1.16 in A549-ACE2^h; format: cell-based
# [2] = tested on: SARS-CoV-2 WA.1 replicon in Vero ACE2 TMPRSS2; assay: microbe, parasite or virus in culture; format: cell-based; conditions: Severe acute respiratory syndrome coronavirus 2, Vero, read-out: Replicon replication in Vero ACE2 TMPRSS2 EC50: WA.1
# MERS-CoV EMC = assay: microbe, parasite or virus in culture; format: cell-based; conditions: Middle East respiratory syndrome-related coronavirus, Vero C1008
# in vivo [3] = conditions: male, CD-1, mouse; for AUC(0-t): AUClast; for Vd: Vss
# [4] = tested on: human cytochrome P450 (CYP) isoforms
# P-gp (MDR1) = assay: in vitro; conditions: dog; for Papp B→A: MDCK-MDR1; for Papp A→B: MDCK-MDR1, MDCK AB
# in vitro [5] = conditions: plasma
# [6] = tested on: SARS-CoV-2 BA.2 (omicron); assay: microbe, parasite or virus in culture; format: cell-based; conditions: Severe acute respiratory syndrome coronavirus 2, Vero C1008
# SARS-CoV Urbani = assay: microbe, parasite or virus in culture; format: cell-based; conditions: Severe acute respiratory syndrome coronavirus, Vero C1008
# [7] = tested on: panel of 40 receptors, ion channels (including the hERG channel), and serine and cysteine proteases
# [8] = target: SARS-CoV-2 M^Pro (Cys^145) (Severe acute respiratory syndrome coronavirus 2, UniProt P0DTD1); format: binding
# [9] = tested on: SARS-CoV-2 BA.2.86.1 replicon in Vero ACE2 TMPRSS2; assay: microbe, parasite or virus in culture; format: cell-based; conditions: Severe acute respiratory syndrome coronavirus 2, Vero, read-out: Replicon replication in Vero ACE2 TMPRSS2 EC50: BA.2.86.1
# [10] = tested on: SARS-CoV-2 XBB.1.16 in A549-ACE2^h; assay: microbe, parasite or virus in culture; format: cell-based; conditions: Severe acute respiratory syndrome coronavirus 2, read-out: Viral replication in A549-ACE2^h EC50: XBB.1.16
# HAPLN1 = HAPLN1 (Homo sapiens, UniProt P10915); format: binding
# [11] = tested on: SARS-CoV-2 XBB.1.5 in A549-ACE2^h; assay: microbe, parasite or virus in culture; format: cell-based; conditions: Severe acute respiratory syndrome coronavirus 2, read-out: Viral replication in A549-ACE2^h EC50: XBB.1.5
# in vitro [12] = conditions: mouse, microsomes, pH 7.4
# [13] = male, CD-1, mouse, in vivo; for AUClast / Plasma T½: po, 50 mg/kg
# [14] = tested on: SARS-CoV-2 EG.5.1 in A549-ACE2^h; assay: microbe, parasite or virus in culture; format: cell-based; conditions: Severe acute respiratory syndrome coronavirus 2, read-out: Viral replication in A549-ACE2^h EC50: EG.5.1
# in vitro [15] = conditions: human, microsomes, pH 7.4
# [16] = tested on: SARS-CoV-2 WA.1 (icSARS-CoV-2-mNG) in A549-ACE2^h; assay: microbe, parasite or virus in culture; format: cell-based; conditions: for pEC50: Severe acute respiratory syndrome coronavirus 2, read-out: Viral replication in A549-ACE2^h EC50: WA.1
# physchem = conditions: pH 7.4, aqueous buffer, kinetic from dmso stock
# SARS-CoV-1 M^Pro = SARS-CoV-1 M^Pro (Severe acute respiratory syndrome coronavirus, UniProt P0C6X7); assay: biochemical
# [17] = tested on: SARS-CoV-2 mNeon WA1 in A549-ACE2^h; format: cell-based
# in vitro [18] = conditions: human
# in vitro [19] = conditions: PAMPA, pH 7.4
# SARS-CoV-2 M^Pro = SARS-CoV-2 M^Pro (Severe acute respiratory syndrome coronavirus 2, UniProt P0DTD1); format: biochemical
# CYP2C8 = CYP2C8 (Homo sapiens, UniProt P10632); conditions: human, pH 7.4
# HCoV Alpha 229E = assay: organism not typed; format: cell-based, HCoV 229E; conditions: Huh-7
# in vitro [20] = conditions: African green monkey
# HCoV Beta OC43 = assay: microbe, parasite or virus in culture; format: cell-based; conditions: Betacoronavirus 1, OC43
# in vivo [21] = conditions: mouse
# cathepsin L2 = cathepsin L2 (Homo sapiens, UniProt O60911)
# [22] = format: physicochemical; conditions: 10 μM
# [23] = mouse, pH 7.4
# [24] = human, pH 7.4
# [25] = rat, in vivo; cited from earlier work
# [26] = pH 7.4, plasma protein binding (PPB)
# Chain of HAPLN1 (P10915 16-354): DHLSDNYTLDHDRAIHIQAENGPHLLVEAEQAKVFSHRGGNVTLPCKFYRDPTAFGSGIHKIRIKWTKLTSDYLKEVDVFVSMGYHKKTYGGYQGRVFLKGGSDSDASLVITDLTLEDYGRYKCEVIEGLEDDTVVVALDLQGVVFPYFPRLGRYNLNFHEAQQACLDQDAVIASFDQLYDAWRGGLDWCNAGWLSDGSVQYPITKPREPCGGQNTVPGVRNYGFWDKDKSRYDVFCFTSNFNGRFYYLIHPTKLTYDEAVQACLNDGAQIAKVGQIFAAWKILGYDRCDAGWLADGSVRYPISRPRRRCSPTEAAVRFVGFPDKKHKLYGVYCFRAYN
# Chain of CYP2C8 (P10632 whole entry): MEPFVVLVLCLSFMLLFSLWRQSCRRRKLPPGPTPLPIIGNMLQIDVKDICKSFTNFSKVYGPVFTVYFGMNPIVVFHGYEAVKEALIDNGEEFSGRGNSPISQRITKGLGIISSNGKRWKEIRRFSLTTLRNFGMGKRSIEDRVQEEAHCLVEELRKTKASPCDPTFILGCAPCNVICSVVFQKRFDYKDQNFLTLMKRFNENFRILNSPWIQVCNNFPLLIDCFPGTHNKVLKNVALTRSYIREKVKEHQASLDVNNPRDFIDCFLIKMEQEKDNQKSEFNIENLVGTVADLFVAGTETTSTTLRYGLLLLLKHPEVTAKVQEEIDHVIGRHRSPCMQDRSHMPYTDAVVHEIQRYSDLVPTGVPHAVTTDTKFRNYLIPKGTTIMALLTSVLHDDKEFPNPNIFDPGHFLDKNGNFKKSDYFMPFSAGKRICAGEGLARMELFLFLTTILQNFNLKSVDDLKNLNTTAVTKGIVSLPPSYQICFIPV
# Chain of cathepsin L2 (O60911 114-334): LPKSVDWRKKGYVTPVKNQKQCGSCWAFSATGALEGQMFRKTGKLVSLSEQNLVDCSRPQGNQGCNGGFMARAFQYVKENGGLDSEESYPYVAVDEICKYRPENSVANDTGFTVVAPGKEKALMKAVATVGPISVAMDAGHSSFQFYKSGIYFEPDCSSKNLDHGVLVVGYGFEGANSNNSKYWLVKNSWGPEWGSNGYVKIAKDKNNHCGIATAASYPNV
smiles,measurement,setting,value
C#CCn1c(C)c(-n2nnc3ccccc32)c(=O)n(-c2cncc3ccccc23)c1=O [AVI-4516],synergy with molnupiravir (ZIP analysis),[1],synergy was observed at several concentrations
same,pEC50,[2],6.80
same,pEC50,MERS-CoV EMC,> 7.49
same,bioavailability,in vivo [3]; F,174%
same,MRT inf,"in vivo [3]; iv, 10 mg/kg",0.798 h
same,clearance,"in vivo [3]; iv, 10 mg/kg",29 mL/min/kg
same,half-life,"in vivo [3]; iv, 10 mg/kg",0.866 h
same,AUC(0-inf),"in vivo [3]; iv, 10 mg/kg, AUCINF",5740 ng·h/mL
same,AUC(0-t),"in vivo [3]; iv, 10 mg/kg",5730 ng·h/mL
same,Vd,"in vivo [3]; iv, 10 mg/kg",1.39 L/kg
same,bioavailability,in vivo [3]; oral bioavailability (%F),> 100%
same,half-life,"in vivo [3]; po, 50 mg/kg",4.7 h
same,AUC(0-inf),"in vivo [3]; po, 50 mg/kg, AUCINF",69500 ng·h/mL
same,AUC(0-inf),"in vivo [3]; po, 50 mg/kg, AUCinf",69500 ng·h/mL
same,AUC(0-t),"in vivo [3]; po, 50 mg/kg",49900 ng·h/mL
same,Cmax,"in vivo [3]; po, 50 mg/kg, CMax",10100 ng/mL
same,Cmax,"in vivo [3]; po, 50 mg/kg, Cmax",10100 ng/mL
same,Tmax,"in vivo [3]; po, 50 mg/kg, TMax",1 h
same,Tmax,"in vivo [3]; po, 50 mg/kg, Tmax",1 h
same,inhibition across the CYP panel,"[4]; human, pH 7.4",≤ 25%
same,Papp B→A,P-gp (MDR1),45.2 ×10⁻⁶ cm/s
same,Papp A→B,P-gp (MDR1),13.3 ×10⁻⁶ cm/s
same,fraction unbound,"in vitro [5]; pH 7.4, PPB",0.37
same,fraction unbound,in vitro [5]; [26],0.39
same,pEC50,[6],6.74
same,EC90,[6],390 nM
same,pEC50,SARS-CoV Urbani,6.24
same,EC90,SARS-CoV Urbani,1000 nM
same,"off-target activity across panel, result in words",[7],no substantial inhibition or interference with any of the off-targets
same,covalent adduct by whole protein MS,[8],single modification consistent with the mass of AVI-4516
same,pEC50,[9],6.89
same,pEC50,[10],7.47
same,increase in Tm of HAPLN1,HAPLN1,5.77 °C
same,pEC50,[11],7.52
same,half-life,in vitro [12],> 2 h
same,Mouse F,[13],57
same,free concentration in plasma,[13],2615 nM
same,AUClast,[13],49900 ng·h/mL
same,Plasma T½,[13],4.7 h
same,pEC50,[14],7.43
same,half-life,in vitro [15],> 2 h
same,pEC50,[16],7.42
same,EC90,"[16]; Severe acute respiratory syndrome coronavirus 2, read-out: cellular 90% effective concentration (EC90)",97 nM
same,solubility,physchem,347 µM
same,pIC50,SARS-CoV-1 M^Pro,7.26
same,synergy with molnupiravir (ZIP analysis),[17],a minor effect was observed in the direction of positive synergy
same,CC50,in vitro [18],> 100000 nM
same,viability at 100 µM,in vitro [18],90.4%
same,Papp,in vitro [19],22.4 ×10⁻⁶ cm/s
same,M^Pro activity after dialysis,SARS-CoV-2 M^Pro,activity was not regained
same,CYP2C8 inhibition,CYP2C8,~ 45%
same,pEC50,HCoV Alpha 229E,5.54
same,EC90,HCoV Alpha 229E,3500 nM
same,CC50,in vitro [20],> 100000 nM
same,pEC50,HCoV Beta OC43,6.23
same,EC90,HCoV Beta OC43,520 nM
same,Kp,in vivo [21],~0.05
O=c1[nH]c(-c2ccc(Cl)c(Cl)c2)c(-n2nnc3cc(F)c(F)cc32)c(=O)n1-c1cncc2ccccc12 [AVI-4673],pEC50,[2],6.03
same,bioavailability,in vivo [3]; F,71.6%
same,MRT inf,"in vivo [3]; iv, 10 mg/kg",1.53 h
same,clearance,"in vivo [3]; iv, 10 mg/kg",51.7 mL/min/kg
same,half-life,"in vivo [3]; iv, 10 mg/kg",2.19 h
same,AUC(0-inf),"in vivo [3]; iv, 10 mg/kg, AUCINF",3220 ng·h/mL
same,AUC(0-t),"in vivo [3]; iv, 10 mg/kg",3100 ng·h/mL
same,Vd,"in vivo [3]; iv, 10 mg/kg",4.75 L/kg
same,half-life,"in vivo [3]; po, 50 mg/kg",2.12 h
same,AUC(0-inf),"in vivo [3]; po, 50 mg/kg, AUCINF",11500 ng·h/mL
same,AUC(0-inf),"in vivo [3]; po, 50 mg/kg, AUCinf",11500 ng·h/mL
same,AUC(0-t),"in vivo [3]; po, 50 mg/kg",11500 ng·h/mL
same,Cmax,"in vivo [3]; po, 50 mg/kg, CMax",2420 ng/mL
same,Cmax,"in vivo [3]; po, 50 mg/kg, Cmax",2420 ng/mL
same,Tmax,"in vivo [3]; po, 50 mg/kg, TMax",4 h
same,Tmax,"in vivo [3]; po, 50 mg/kg, Tmax",2 h
same,Papp B→A,P-gp (MDR1),18.4 ×10⁻⁶ cm/s
same,Papp A→B,P-gp (MDR1),2.1 ×10⁻⁶ cm/s
same,fraction unbound,"in vitro [5]; pH 7.4, PPB",0.005
same,pEC50,[9],6.55
same,pEC50,[10],6.44
same,pEC50,[11],6.82
same,half-life,in vitro [12],> 2 h
same,Mouse F,[13],76
same,AUClast,[13],11500 ng·h/mL
same,Plasma T½,[13],2.12 h
same,pEC50,[14],6.64
same,half-life,in vitro [15],> 2 h
same,pEC50,[16],6.72
same,solubility,physchem,475 µM
same,CC50,in vitro [18],> 100000 nM
same,viability at 100 µM,in vitro [18],94.4%
same,Papp,in vitro [19],4.99 ×10⁻⁶ cm/s
same,"cathepsin L2 inhibition, result in words",cathepsin L2,low-micromolar inhibitor
C#CCn1c(-c2ccc(Cl)c(Cl)c2)c(-n2nnc3cc(F)c(F)cc32)c(=O)n(-c2cncc3ccccc23)c1=O [AVI-4694],particle formation by dynamic light scattering (DLS),[22],formed particles
same,pEC50,[2],7.89
same,pEC50,MERS-CoV EMC,7.35
same,bioavailability,in vivo [3]; F,63.5%
same,MRT inf,"in vivo [3]; iv, 10 mg/kg",2.6 h
same,clearance,"in vivo [3]; iv, 10 mg/kg",9.37 mL/min/kg
same,half-life,"in vivo [3]; iv, 10 mg/kg",1.72 h
same,AUC(0-inf),"in vivo [3]; iv, 10 mg/kg, AUCINF",17800 ng·h/mL
same,AUC(0-t),"in vivo [3]; iv, 10 mg/kg",17300 ng·h/mL
same,Vd,"in vivo [3]; iv, 10 mg/kg",1.46 L/kg
same,half-life,"in vivo [3]; po, 50 mg/kg",1.87 h
same,AUC(0-inf),"in vivo [3]; po, 50 mg/kg, AUCINF",56500 ng·h/mL
same,AUC(0-inf),"in vivo [3]; po, 50 mg/kg, AUCinf",56500 ng·h/mL
same,AUC(0-t),"in vivo [3]; po, 50 mg/kg",56500 ng·h/mL
same,Cmax,"in vivo [3]; po, 50 mg/kg, CMax",5770 ng/mL
same,Cmax,"in vivo [3]; po, 50 mg/kg, Cmax",5770 ng/mL
same,Tmax,"in vivo [3]; po, 50 mg/kg, TMax",4 h
same,Tmax,"in vivo [3]; po, 50 mg/kg, Tmax",4 h
same,inhibition of several CYP isoforms,[4]; 10 μM,> 50%
same,Papp B→A,P-gp (MDR1),13.8 ×10⁻⁶ cm/s
same,Papp A→B,P-gp (MDR1),8.2 ×10⁻⁶ cm/s
same,fraction unbound,"in vitro [5]; pH 7.4, PPB",0.003
same,fraction unbound,in vitro [5]; [26],< 0.01
same,pEC50,[6],7.30
same,EC90,[6],45 nM
same,pEC50,SARS-CoV Urbani,7.28
same,EC90,SARS-CoV Urbani,91 nM
same,"off-target activity across panel, result in words",[7],low-micromolar inhibition of nine enzymes/receptors in the panel
same,covalent adduct by whole protein MS,[8],mass shifts consistent with modification at a single site
same,pEC50,[9],7.92
same,pEC50,[10],9.49
same,MLM T1/2,[23],> 2 h
same,pEC50,[11],9.52
same,half-life,in vitro [12],1.6 h
same,HLM T1/2,[24],> 2 h
same,Mouse F,[13],64
same,AUClast,[13],56500 ng·h/mL
same,Plasma T½,[13],1.87 h
same,pEC50,[14],9.66
same,pEC50,[16],7.15
same,solubility,physchem,2.4 µM
same,pIC50,SARS-CoV-1 M^Pro,7.18
same,M^Pro activity after dialysis,SARS-CoV-2 M^Pro,activity was not regained
same,pEC50,HCoV Alpha 229E,< 5.80
same,EC90,HCoV Alpha 229E,> 1600 nM
same,pEC50,HCoV Beta OC43,7.26
same,EC90,HCoV Beta OC43,61 nM
"CC(C)(C)[C@H](NC(=O)C(F)(F)F)C(=O)N1C[C@H]2[C@@H]([C@H]1C(=O)N[C@H](C#N)C[C@@H]1CCNC1=O)C2(C)C [nirmatrelvir, reference compound]",pEC50,[2],6.21
same,pEC50,[9],6.09
same,brain concentrations relative to EC90,[25],only three times the respective EC90 value
same,pEC50,[10],7.39
same,pEC50,[11],7.68
same,pEC50,[14],7.17
same,pEC50,[16],7.51
